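Step 1: Grow cells in 96-well plates. Step 2: Expose to compound for 48 hours at 5 concentrations. Step 3: Interpolate endpoints linearly; if unreached, use highest concentration. At the GI50, growth is halved.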 Activity calls are given as the source filed them. Rule as the data show it: active = GI50 up to about 1.1 µM and inactive = higher.

Test systems include SF-295; SF-268; OVCAR-8; CCRF-CEM; HCT-15; EKVX; RXF 393; TK-10; MDA-MB-435; SR; OVCAR-4; MDA-MB-231; DU-145; SK-MEL-28; UO-31; SN12C; MCF7; HOP-92; M14; HCC 2998.
Holding throughout (assay): NCI tumour cell line growth inhibition, 48 h

For `O=C(CSCC(=O)N/N=C\c1cccc([N+](=O)[O-])c1)N/N=C\c1cccc([N+](=O)[O-])c1`, the GI50 is 11.5 µM (inactive) in the assay on SF-295; 39.9 µM (inactive) in the assay on SF-268; 31.3 µM (inactive) with OVCAR-8; > 100 µM (inactive) in the assay on CCRF-CEM; 25.5 µM in the assay with HCT-15; 53.6 µM (inactive) with EKVX. Besides, the GI50 in the assay with RXF 393 is 49.8 µM (inactive); with TK-10, 17.4 µM (inactive); in the assay on MDA-MB-435, > 100 µM (inactive); in the assay on SR it was 69 µM (inactive); with OVCAR-4, > 100 µM (inactive); with MDA-MB-231, 18.9 µM (inactive). Moreover, the GI50 with DU-145 was 54.1 µM (inactive); in the assay on SK-MEL-28, > 100 µM (inactive); in the assay on UO-31 it was 34.4 µM (inactive); in the assay with SN12C, 68.9 µM (inactive); with MCF7, 38.5 µM (inactive); in the assay on HOP-92, 32.4 µM (inactive). For the same molecule, the GI50 in the assay on M14 is > 100 µM (inactive); with HCC 2998, 30.9 µM (inactive).
As for `COc1c(C)c2nc3ccccc3nc2c2c(O)ccnc12`, the GI50 in the assay with SF-295 is 43.2 µM (inactive); in the assay on SF-268, 68.7 µM (inactive); with OVCAR-8, 50.5 µM (inactive); in the assay on CCRF-CEM, > 100 µM (inactive); with HCT-15, above 100 µM; in the assay with EKVX, > 100 µM (inactive). The GI50 in the assay with RXF 393 was 19.3 µM (inactive); with TK-10, 64.4 µM (inactive); with MDA-MB-435, > 100 µM (inactive); with SR, > 100 µM (inactive); in the assay on OVCAR-4 it was > 100 µM (inactive); with MDA-MB-231 it was > 100 µM (inactive). Besides, the GI50 with DU-145 was 34 µM (inactive); in the assay with SK-MEL-28, > 100 µM (inactive); in the assay with UO-31, > 100 µM (inactive); with SN12C, > 100 µM (inactive); in the assay on MCF7 it was > 100 µM (inactive); in the assay on HOP-92 it was 36.4 µM (inactive). The GI50 in the assay with M14 and in the assay on HCC 2998 was > 100 µM (inactive) in each case.
For the molecule `CN(C(=O)c1ccccc1)C1CCCC(=O)CC1` (stereo not given), the GI50 with SF-295 was > 100 µM (inactive); in the assay with SF-268, > 100 µM (inactive); in the assay with OVCAR-8, > 100 µM (inactive); in the assay with CCRF-CEM, > 100 µM (inactive); with HCT-15 it was above 100 µM; with EKVX, > 100 µM (inactive). Further, the GI50 in the assay on RXF 393, in the assay on TK-10, in the assay with MDA-MB-435, with SR, in the assay on OVCAR-4 and in the assay on MDA-MB-231 was > 100 µM (inactive) in each case. For the same molecule, the GI50 in the assay with DU-145, in the assay with SK-MEL-28, with UO-31, with SN12C, in the assay on MCF7 and in the assay on HOP-92 was > 100 µM (inactive) in each case. Besides, the GI50 with M14 and in the assay with HCC 2998 was > 100 µM (inactive) each time.
On to `CC1=NN(c2cccc(S(=O)(=O)O)c2)C2(C1)C(Cl)C(=O)N2c1nc2ccccc2s1` (stereo not given), for which the GI50 was 13.8 µM (inactive) with SF-295; 7.87 µM (inactive) in the assay on SF-268; 5.65 µM (inactive) with OVCAR-8; 1.26 µM (inactive) in the assay with CCRF-CEM; 4.04 µM in the assay with HCT-15; 8.53 µM (inactive) in the assay on EKVX. Also, the GI50 with RXF 393 was 8.28 µM (inactive); in the assay with TK-10 it was 14.2 µM (inactive); in the assay with MDA-MB-435 it was 6.85 µM (inactive); in the assay with SR it was 7.08 µM (inactive); in the assay with OVCAR-4, 4.74 µM (inactive); in the assay with MDA-MB-231, 8.73 µM (inactive). The GI50 in the assay on DU-145 is 11.3 µM (inactive); in the assay on SK-MEL-28, 15.7 µM (inactive); in the assay on UO-31 it was 3.55 µM (inactive); with SN12C, 5.37 µM (inactive); in the assay with MCF7 it was 8.89 µM (inactive); in the assay on HOP-92 it was 2.57 µM (inactive). Besides, the GI50 with M14 is 8.65 µM (inactive); in the assay on HCC 2998, 15.1 µM (inactive).
Regarding `CCCC1=NC(C(F)(F)F)(C(F)(F)F)N=C(N2CCOCC2)O1`, the GI50 was > 100 µM (inactive) with SF-295; > 100 µM (inactive) in the assay with SF-268; > 100 µM (inactive) in the assay on OVCAR-8; > 100 µM (inactive) with CCRF-CEM; above 100 µM with HCT-15; > 100 µM (inactive) with EKVX. In addition, the GI50 with RXF 393 is > 100 µM (inactive); with TK-10, > 100 µM (inactive); in the assay with MDA-MB-435, > 100 µM (inactive); in the assay on SR it was > 100 µM (inactive); in the assay on OVCAR-4, 80.2 µM (inactive); with MDA-MB-231, > 100 µM (inactive). Moreover, the GI50 with DU-145 was > 100 µM (inactive); in the assay with SK-MEL-28 it was > 100 µM (inactive); in the assay on UO-31, > 100 µM (inactive); in the assay on SN12C it was > 100 µM (inactive); in the assay on MCF7, > 100 µM (inactive); with HOP-92, 25.3 µM (inactive). The GI50 with M14 and in the assay with HCC 2998 was > 100 µM (inactive) throughout.
`COc1cc2nc(-c3c(F)cccc3F)n(Cc3c(F)cccc3F)c2cc1Cc1c(F)cccc1F`: the GI50 in the assay on SF-295 is > 100 µM (inactive); in the assay on SF-268 it was > 72.1 µM (inactive); with OVCAR-8, > 100 µM (inactive); in the assay on CCRF-CEM, > 100 µM (inactive); in the assay on HCT-15 it was above 100 µM; in the assay on EKVX it was 16.9 µM (inactive). The GI50 with RXF 393 was 1.55 µM (inactive); with TK-10 it was > 100 µM (inactive); in the assay on MDA-MB-435, 8.59 µM (inactive); in the assay with SR, > 20.4 µM (inactive); in the assay with OVCAR-4, 1.84 µM (inactive); in the assay with MDA-MB-231, 27.7 µM (inactive). Moreover, the GI50 in the assay with DU-145 was > 100 µM (inactive); in the assay with SK-MEL-28, 0.35 µM (active); with UO-31, 9.1 µM (inactive); with SN12C it was > 69.8 µM (inactive); with MCF7, 3.47 µM (inactive); in the assay with HOP-92, 2.79 µM (inactive). The GI50 in the assay on M14 was > 24.3 µM (inactive); in the assay on HCC 2998, 20.6 µM (inactive).
Consider `CN(C)c1nc(N)nc(CS)n1`, for which the GI50 in the assay with SF-295 is 52.4 µM (inactive); in the assay on SF-268 it was > 100 µM (inactive); with OVCAR-8 it was > 100 µM (inactive); in the assay with CCRF-CEM, 25.5 µM (inactive); with HCT-15 it was 56.4 µM; in the assay on EKVX it was > 100 µM (inactive). Moreover, the GI50 with RXF 393 was > 100 µM (inactive); in the assay on TK-10 it was > 100 µM (inactive); in the assay with MDA-MB-435 it was > 100 µM (inactive); in the assay on SR, 37.2 µM (inactive); in the assay with OVCAR-4, 80.7 µM (inactive); in the assay on MDA-MB-231 it was 45.6 µM (inactive). The GI50 in the assay on DU-145, in the assay with SK-MEL-28, in the assay with UO-31, with SN12C, in the assay with MCF7 and with HOP-92 was > 100 µM (inactive) in each case. Moreover, the GI50 in the assay on M14 and in the assay on HCC 2998 was > 100 µM (inactive) each time.
Turning to `c1ccc2c3c(ccc2c1)CSCc1ccc2ccccc2c1-3`, the GI50 with SF-295 is > 100 µM (inactive); in the assay with SF-268, > 100 µM (inactive); in the assay on OVCAR-8, > 100 µM (inactive); in the assay with CCRF-CEM it was > 100 µM (inactive); in the assay on HCT-15, above 100 µM; with EKVX it was > 100 µM (inactive). Further, the GI50 is > 100 µM (inactive) in the assay on RXF 393; > 100 µM (inactive) in the assay on TK-10; > 100 µM (inactive) in the assay with MDA-MB-435; 33 µM (inactive) in the assay with SR; 26.8 µM (inactive) in the assay on OVCAR-4; > 100 µM (inactive) in the assay on MDA-MB-231. Besides, the GI50 with DU-145 was > 100 µM (inactive); in the assay with SK-MEL-28 it was > 100 µM (inactive); in the assay on UO-31, > 100 µM (inactive); with SN12C, > 100 µM (inactive); in the assay on MCF7 it was > 100 µM (inactive); in the assay with HOP-92, 22.2 µM (inactive). In addition, the GI50 in the assay with M14 and with HCC 2998 was > 100 µM (inactive) each time.
